The source of these data is ChEMBL document CHEMBL4706519, “Evaluation of N-phenyl-2-aminothiazoles for treatment of multi-drug resistant and intracellular Staphylococcus aureus infections” (Eur J Med Chem, 2020).

Converted amounts (≈) assume the structure as drawn.

By solubility (kinetic) is commonly meant solubility judged after dilution from a stock solution rather than from solid.

Series [1] has as its system Staphylococcus aureus. The series can be described thus: Antibacterial activity against methicillin-resistant Staphylococcus aureus USA300 NRS384 assessed as inhibition of bacterial growth measured after 18 to 20 hrs by broth microdilution method. Particulars: time 18-20 hrs. The class given is functional. A general note: In broth dilution the organism is exposed to a series of concentrations in liquid medium.

The subject of series [2] is Escherichia coli. The series can be described thus: Antibacterial activity against Escherichia coli JW55031 harboring toIC efflux mutant assessed as inhibition of bacterial growth measured after 18 to 20 hrs by broth microdilution method. It counts as functional. Particulars: time 18-20 hrs.
Series [3] concerns Escherichia coli. The series can be described thus: Antibacterial activity against wild type Escherichia coli BW25113 assessed as inhibition of bacterial growth measured after 18 to 20 hrs by broth microdilution method. The note with it: time 18-20 hrs. It counts as functional.
The subject of series [4] is Staphylococcus aureus. The series can be described thus: Ratio of MIC for methicillin-resistant Staphylococcus aureus USA400 NRS123 measured after 14th passage to MIC for methicillin-resistant Staphylococcus aureus USA400 NRS123 measured after 18 to 20 hrs by broth microdilution assay. The class given is functional.
Series [5] deals with Staphylococcus aureus. Description: Antibacterial activity against vancomycin-resistant Staphylococcus aureus 10 assessed as inhibition of bacterial growth measured after 18 to 20 hrs by CLSI protocol based broth microdilution method. The class given is functional. The note with it: time 18-20 hrs.
Series [6] concerns Staphylococcus aureus. Description: Antibacterial activity against vancomycin-resistant Staphylococcus aureus 12 assessed as inhibition of bacterial growth measured after 18 to 20 hrs by CLSI protocol based broth microdilution method. It counts as functional. Particulars: time 18-20 hrs.
For series [7], the system named is Staphylococcus epidermidis. The series can be described thus: Antibacterial activity against methicillin-resistant Staphylococcus epidermidis NRS101 assessed as inhibition of bacterial growth measured after 18 to 20 hrs by CLSI protocol based broth microdilution method. The class given is functional. Particulars: time 18-20 hrs.
The next series deals with Enterococcus faecium. The series can be described thus: Antibacterial activity against vancomycin-resistant Enterococcus faecium ATCC 700221 assessed as inhibition of bacterial growth measured after 18 to 20 hrs by CLSI protocol based broth microdilution method. The class given is functional. Particulars: time 18-20 hrs.
A further series concerns Listeria monocytogenes. The series can be described thus: Antibacterial activity against Listeria monocytogenes ATCC 19111 assessed as inhibition of bacterial growth measured after 18 to 20 hrs by CLSI protocol based broth microdilution method. It counts as functional. The note with it: time 18-20 hrs.
The test system of series [8] is Streptococcus pneumoniae. Description: Antibacterial activity against cephalosporin-resistant Streptococcus pneumoniae ATCC 51916 assessed as inhibition of bacterial growth measured after 18 to 20 hrs by CLSI protocol based broth microdilution method. The class given is functional. The note with it: time 18-20 hrs.
Series [9] deals with Streptococcus pneumoniae. Description: Antibacterial activity against methicillin-resistant Streptococcus pneumoniae ATCC 700677 assessed as inhibition of bacterial growth measured after 18 to 20 hrs by CLSI protocol based broth microdilution method. The class given is functional. Particulars: time 18-20 hrs.
Series [10] relates to Staphylococcus aureus. Description: microbe, parasite or virus in culture. Particulars: ATCC 6538.
Series [11] has as its system Staphylococcus aureus. Description: microbe, parasite or virus in culture. Particulars: NRS107.
The subject of series [12] is Staphylococcus aureus. The series can be described thus: microbe, parasite or virus in culture. Particulars: NRS119.
Series [13] has as its system Staphylococcus aureus. Description: microbe, parasite or virus in culture. Particulars: USA400 NRS123.
In series [14] the test system is Staphylococcus aureus. Description: microbe, parasite or virus in culture. The note with it: USA500 NRS385.
The test system of series [15] is Staphylococcus aureus. The series can be described thus: microbe, parasite or virus in culture. Particulars: USA700 NRS386.
For the next series, the system named is Enterococcus faecalis. The series can be described thus: microbe, parasite or virus in culture. Particulars: ATCC 51299.
A short description of the next series: physchem. Particulars: phosphate-buffered saline, pH 7.4.
Series [16] relates to Staphylococcus aureus. The series can be described thus: Bactericidal activity against methicillin-resistant Staphylococcus aureus USA400 NRS123 assessed as post-antibiotic effect at 5 times MIC incubated for 2 hrs followed by compound wash-out by viable plate count method. It counts as functional.

Regarding `C/C(=N\NC(=N)N)c1ccc(Nc2nc(-c3ccc(Br)cc3)cs2)cc1`, the MIC with Staphylococcus aureus [1] is 16 µg/mL (≈ 37.3 µM); in the series with Escherichia coli [2], 2 µg/mL (≈ 4.66 µM); with Escherichia coli [3], 4 µg/mL (≈ 9.32 µM).

As to `COc1ccc(-c2csc(Nc3ccc(C(C)=O)cc3)n2)cc1`, the MIC in the series with Staphylococcus aureus [1], with Escherichia coli [2] and in the series on Escherichia coli [3] was greater than 64 µg/mL throughout.

`COc1ccc(-c2csc(Nc3ccc(/C(C)=N/NC(N)=S)cc3)n2)cc1`: the MIC in the series with Staphylococcus aureus [1], in the series on Escherichia coli [2] and with Escherichia coli [3] was greater than 64 µg/mL in each case.

Regarding `C/C(=N\NC(N)=O)c1ccc(Nc2nc(-c3ccc(Br)cc3)cs2)cc1`, the MIC with Staphylococcus aureus [1], in the series with Escherichia coli [2] and with Escherichia coli [3] was greater than 64 µg/mL throughout.

For `COc1ccc(-c2csc(Nc3ccc(/C(C)=N/NC(N)=O)cc3)n2)cc1`, the MIC with Staphylococcus aureus [1], in the series on Escherichia coli [2] and in the series with Escherichia coli [3] was greater than 64 µg/mL throughout.

In the case of `CC(=O)c1ccc(Nc2nc(-c3ccccc3)cs2)cc1`, the MIC with Staphylococcus aureus [1], in the series with Escherichia coli [2] and in the series on Escherichia coli [3] was greater than 64 µg/mL throughout.

`C/C(=N\NC(N)=O)c1ccc(Nc2nc(-c3ccc(Cl)cc3)cs2)cc1`: the MIC with Staphylococcus aureus [1], with Escherichia coli [2] and in the series with Escherichia coli [3] was greater than 64 µg/mL in each case.

In the case of `CC(=O)c1ccc(Nc2nc(-c3ccc(Br)cc3)cs2)cc1`, the MIC in the series on Staphylococcus aureus [1], in the series with Escherichia coli [2] and with Escherichia coli [3] was greater than 64 µg/mL in each case.

Consider `C/C(=N\NC(N)=S)c1ccc(Nc2nc(-c3ccccc3)cs2)cc1`, for which the MIC in the series on Staphylococcus aureus [1], in the series with Escherichia coli [2] and in the series with Escherichia coli [3] was greater than 64 µg/mL in each case.

With `C/C(=N\NC(N)=O)c1ccc(Nc2nc(-c3ccc(C)cc3)cs2)cc1`, the MIC in the series on Staphylococcus aureus [1] was 32 µg/mL (≈ 87.6 µM); with Escherichia coli [2], 32 µg/mL (≈ 87.6 µM); in the series on Escherichia coli [3], greater than 64 µg/mL.

With `CC(=O)c1ccc(Nc2nc(-c3ccc(C)cc3)cs2)cc1`, the MIC in the series with Staphylococcus aureus [1] was greater than 64 µg/mL; with Escherichia coli [2], 64 µg/mL (≈ 208 µM); with Escherichia coli [3], greater than 64 µg/mL.

`C/C(=N\NC(N)=S)c1ccc(Nc2nc(-c3ccc(Br)cc3)cs2)cc1`: the MIC in the series on Staphylococcus aureus [1], in the series on Escherichia coli [2] and in the series with Escherichia coli [3] was greater than 64 µg/mL throughout.

Take `C/C(=N\NC(N)=S)c1ccc(Nc2nc(-c3ccc(Cl)cc3)cs2)cc1`: the MIC with Staphylococcus aureus [1] is 32 µg/mL (≈ 79.6 µM); in the series with Escherichia coli [2], 64 µg/mL (≈ 159 µM); in the series with Escherichia coli [3], greater than 64 µg/mL.

`C/C(=N\NC(N)=O)c1ccc(Nc2nc(-c3ccccc3)cs2)cc1`: the MIC in the series with Staphylococcus aureus [1], in the series with Escherichia coli [2] and in the series with Escherichia coli [3] was greater than 64 µg/mL in each case.

On to `C/C(=N\NC(N)=S)c1ccc(Nc2nc(-c3ccc(C)cc3)cs2)cc1`, for which the MIC with Staphylococcus aureus [1], in the series on Escherichia coli [2] and with Escherichia coli [3] was greater than 64 µg/mL throughout.

As for `CC(=O)c1ccc(Nc2nc(-c3ccc(Cl)cc3)cs2)cc1`, the MIC in the series with Staphylococcus aureus [1], with Escherichia coli [2] and in the series on Escherichia coli [3] was greater than 64 µg/mL throughout.

As for `COc1ccc(-c2csc(Nc3ccc(/C(C)=N/NC(=N)N)cc3)n2)cc1`, the MIC with Staphylococcus aureus [1] was 32 µg/mL (≈ 84.1 µM); with Escherichia coli [2], 2 µg/mL (≈ 5.26 µM); in the series with Escherichia coli [3] it was 4 µg/mL (≈ 10.5 µM).

Consider `O=C(O)c1cn(C2CC2)c2cc(N3CCNCC3)c(F)cc2c1=O` [CIPROFLOXACIN], for which the Ratio with Staphylococcus aureus [4] came out at 127.

Consider `CN[C@@H]1[C@@H](O)[C@@H](O[C@@H]2[C@@H](O)[C@H](O[C@H]3O[C@H]([C@@H](C)N)CC[C@H]3N)[C@@H](N)C[C@H]2N)OC[C@]1(C)O` [GENTAMICIN C2], for which the MIC in the series on Escherichia coli [2] and in the series with Escherichia coli [3] was 0.25 µg/mL (≈ 0.539 µM) throughout.

As to `CC(=O)NC[C@H]1CN(c2ccc(N3CCOCC3)c(F)c2)C(=O)O1` [LINEZOLID], the MBC in the series with Staphylococcus aureus [5] was greater than 64 µg/mL; in the series with Staphylococcus aureus [6], 64 µg/mL (≈ 190 µM); in series [7], 16 µg/mL (≈ 47.4 µM); with Enterococcus faecium, 16 µg/mL (≈ 47.4 µM); in the series with Listeria monocytogenes, 16 µg/mL (≈ 47.4 µM); in the series on Streptococcus pneumoniae [8] it was 32 µg/mL (≈ 94.9 µM). Further, the MBC in the series with Streptococcus pneumoniae [9] is 16 µg/mL (≈ 47.4 µM); against Staphylococcus aureus [10], 16 µg/mL (≈ 47.4 µM); in the series on Staphylococcus aureus [11], 64 µg/mL (≈ 190 µM); with Staphylococcus aureus [12], greater than 64 µg/mL; in the series with Staphylococcus aureus [13], 32 µg/mL (≈ 94.9 µM); against Staphylococcus aureus [14] it was 32 µg/mL (≈ 94.9 µM). In addition, the MBC with Staphylococcus aureus [15] was 64 µg/mL (≈ 190 µM); in the series on Enterococcus faecalis, 16 µg/mL (≈ 47.4 µM). Also, the MIC with Staphylococcus aureus [5] was 1 µg/mL (≈ 2.96 µM); with Staphylococcus aureus [6], 1 µg/mL (≈ 2.96 µM); in series [7], 1 µg/mL (≈ 2.96 µM); in the series on Enterococcus faecium it was 1 µg/mL (≈ 2.96 µM); with Listeria monocytogenes, no more than 0.5 µg/mL; against Staphylococcus aureus [10] it was 1 µg/mL (≈ 2.96 µM). Moreover, the MIC against Staphylococcus aureus [11] is 1 µg/mL (≈ 2.96 µM); in the series on Staphylococcus aureus [12] it was 64 µg/mL (≈ 190 µM); against Staphylococcus aureus [13] it was 1 µg/mL (≈ 2.96 µM); against Staphylococcus aureus [14], 1 µg/mL (≈ 2.96 µM).

Take `CO[C@H]1/C=C/O[C@@]2(C)Oc3c(C)c(O)c4c(O)c(c(/C=N/N5CCN(C)CC5)c(O)c4c3C2=O)NC(=O)/C(C)=C\C=C\[C@H](C)[C@H](O)[C@@H](C)[C@@H](O)[C@@H](C)[C@H](OC(C)=O)[C@@H]1C` [RIFAMPIN]: in the series “physchem”, the kinetic solubility at 2 h amounted to 183 µM (≈ 151 µg/mL).

For `CN[C@H](CC(C)C)C(=O)N[C@H]1C(=O)N[C@@H](CC(N)=O)C(=O)N[C@H]2C(=O)N[C@H]3C(=O)N[C@H](C(=O)N[C@H](C(=O)O)c4cc(O)cc(O)c4-c4cc3ccc4O)[C@H](O)c3ccc(c(Cl)c3)Oc3cc2cc(c3O[C@@H]2O[C@H](CO)[C@@H](O)[C@H](O)[C@H]2O[C@H]2C[C@](C)(N)[C@H](O)[C@H](C)O2)Oc2ccc(cc2Cl)[C@H]1O` [VANCOMYCIN], the MBC in the series on Staphylococcus aureus [5] was greater than 64 µg/mL; in the series with Staphylococcus aureus [6], 64 µg/mL (≈ 44.2 µM); in series [7], 2 µg/mL (≈ 1.38 µM); in the series with Enterococcus faecium it was greater than 64 µg/mL; in the series with Staphylococcus aureus [10] it was 2 µg/mL (≈ 1.38 µM); against Staphylococcus aureus [11] it was 2 µg/mL (≈ 1.38 µM). In addition, the MBC against Staphylococcus aureus [12] worked out at 2 µg/mL (≈ 1.38 µM); against Staphylococcus aureus [13], 1 µg/mL (≈ 0.69 µM); against Staphylococcus aureus [14] it was 1 µg/mL (≈ 0.69 µM); in the series on Staphylococcus aureus [15], 1 µg/mL (≈ 0.69 µM); with Enterococcus faecalis it was 64 µg/mL (≈ 44.2 µM). In addition, the MIC with Staphylococcus aureus [5] is 64 µg/mL (≈ 44.2 µM); in the series with Staphylococcus aureus [6] it was 64 µg/mL (≈ 44.2 µM); with Enterococcus faecium it was greater than 64 µg/mL; in the series on Listeria monocytogenes, 1 µg/mL (≈ 0.69 µM); with Streptococcus pneumoniae [8], 1 µg/mL (≈ 0.69 µM); in the series on Streptococcus pneumoniae [9], 2 µg/mL (≈ 1.38 µM). The compound further showed an MIC with Enterococcus faecalis of 32 µg/mL (≈ 22.1 µM). The PAE in the series with Staphylococcus aureus [16] was 2 h.
